Read-outs that look alike come from different tables or passages of the source.
What was measured:
USP7 = USP7 (Homo sapiens, UniProt Q93009); experiment: Ub-Rho cleavage assay; type: biochemical; settings: Ub-Rho substrate, recombinant USP7; read-out: Ub (Rho) USP7.1 (IC50)
Protocol: All fluorescence measurements were performed on a Molecular Devices FlexStation3 with excitation at 480 nm and emission 540 nm, PMT Gain: Medium, Flash Number: 10. […] Assay buffer for all measurements was 50 mM HEPES, 100 mM NaCl, 0.5 mM EDTA, 1 mM TCEP, 0.1 mg/ml BSA, 0.01% Tween-20, pH 7.8. […] Serial dilutions were made with a Mosquito HTS (SPT Labtech) nanoliter liquid handler. 200 nL of each compound in duplicate or DMSO control were transferred to the assay plate. The first two columns served as positive controls. 9.8 μl per well of USP7 working solution was added to the assay plate. Compound+Protein was incubated for 25 min at 25° C. 10 uL of Ub-Rho substrate was added per well and incubated for an additional 15 min at 25° C. Fluorescence was then measured. Percent response relative to DMSO controls was calculated in GraphPad or Scinamic, and the data was fitted to a non-linear regression to determine IC50 values.

USP7 CD + UBL 1-5 = molecular target: T1, USP7 CD + UBL 1-5 (Homo sapiens, UniProt Q93009); experiment: Surface plasmon resonance assay (SPR); type: binding
T1 construct: USP7 CD +
T1 sequence (Q93009 208-1102 limits assumed): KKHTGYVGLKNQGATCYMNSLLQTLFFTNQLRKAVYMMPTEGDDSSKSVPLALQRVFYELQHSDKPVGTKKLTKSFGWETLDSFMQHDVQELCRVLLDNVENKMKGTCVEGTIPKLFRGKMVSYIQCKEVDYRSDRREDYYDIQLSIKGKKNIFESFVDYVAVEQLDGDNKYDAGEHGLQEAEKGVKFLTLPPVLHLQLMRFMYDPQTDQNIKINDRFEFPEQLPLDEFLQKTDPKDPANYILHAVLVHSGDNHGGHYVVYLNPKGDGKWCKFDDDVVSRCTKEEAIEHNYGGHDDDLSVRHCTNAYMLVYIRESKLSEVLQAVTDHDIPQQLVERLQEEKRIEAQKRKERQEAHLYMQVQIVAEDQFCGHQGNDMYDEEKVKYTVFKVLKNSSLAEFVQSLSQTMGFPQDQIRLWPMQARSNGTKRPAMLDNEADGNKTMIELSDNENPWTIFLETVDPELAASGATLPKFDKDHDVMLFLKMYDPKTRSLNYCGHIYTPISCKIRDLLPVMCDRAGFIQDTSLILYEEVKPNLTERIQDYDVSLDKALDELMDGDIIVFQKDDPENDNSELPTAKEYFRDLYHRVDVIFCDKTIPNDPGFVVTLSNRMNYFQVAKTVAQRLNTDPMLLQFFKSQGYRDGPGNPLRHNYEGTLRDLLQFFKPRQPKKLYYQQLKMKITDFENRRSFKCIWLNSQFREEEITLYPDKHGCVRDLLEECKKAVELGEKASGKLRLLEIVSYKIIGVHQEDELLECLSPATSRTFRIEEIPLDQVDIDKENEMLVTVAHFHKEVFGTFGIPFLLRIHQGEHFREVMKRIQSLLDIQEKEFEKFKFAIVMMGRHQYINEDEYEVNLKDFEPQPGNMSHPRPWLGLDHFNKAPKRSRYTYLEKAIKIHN
Protocol: The surface plasmon resonance experiments were performed using a Cytiva (formerly GE Healthcare) Biacore 8K equipped with a Series S Sensor Chip SA. The ligands were immobilized via a biotin-modified biotin acceptor peptide. USP7 Ligands were diluted in running buffer (HBS-P+2% DMSO; 10 mM HEPES, pH 7.4, 150 mM NaCl, 1 mM DTT, 0.05% P20, 2% DMSO) to 100 μg/mL and injected at […] until a density between 500-10,000 RU was reached on flow-cell two of each channel, and flow cell one was left blank to serve as a reference surface. Both surfaces were washed until a stable baseline was achieved then 30 startup cycles to condition the surface. To collect kinetic and steady-state binding data, the small molecule analytes were prepared in three-fold dilution series in HBS-P+2% DMSO running buffer. Analytes were injected over both flow cells at a flow rate of […] at 25° C. The complex was allowed to associate for 60 seconds and dissociate for 300 seconds. Data were collected at 10 Hz. The data were fit to a simple 1:1 interaction model global data analysis within Cytiva Biacore Insight Evaluation Software.

[1] = steady-state KD, read-out: SPR USP7 CD + UBL 1-5 (KD_ss)
[2] = kinetic KD, read-out: SPR USP7 CD + UBL 1-5 (KD_kinetic)

Sequence of USP7 (Q93009 whole entry): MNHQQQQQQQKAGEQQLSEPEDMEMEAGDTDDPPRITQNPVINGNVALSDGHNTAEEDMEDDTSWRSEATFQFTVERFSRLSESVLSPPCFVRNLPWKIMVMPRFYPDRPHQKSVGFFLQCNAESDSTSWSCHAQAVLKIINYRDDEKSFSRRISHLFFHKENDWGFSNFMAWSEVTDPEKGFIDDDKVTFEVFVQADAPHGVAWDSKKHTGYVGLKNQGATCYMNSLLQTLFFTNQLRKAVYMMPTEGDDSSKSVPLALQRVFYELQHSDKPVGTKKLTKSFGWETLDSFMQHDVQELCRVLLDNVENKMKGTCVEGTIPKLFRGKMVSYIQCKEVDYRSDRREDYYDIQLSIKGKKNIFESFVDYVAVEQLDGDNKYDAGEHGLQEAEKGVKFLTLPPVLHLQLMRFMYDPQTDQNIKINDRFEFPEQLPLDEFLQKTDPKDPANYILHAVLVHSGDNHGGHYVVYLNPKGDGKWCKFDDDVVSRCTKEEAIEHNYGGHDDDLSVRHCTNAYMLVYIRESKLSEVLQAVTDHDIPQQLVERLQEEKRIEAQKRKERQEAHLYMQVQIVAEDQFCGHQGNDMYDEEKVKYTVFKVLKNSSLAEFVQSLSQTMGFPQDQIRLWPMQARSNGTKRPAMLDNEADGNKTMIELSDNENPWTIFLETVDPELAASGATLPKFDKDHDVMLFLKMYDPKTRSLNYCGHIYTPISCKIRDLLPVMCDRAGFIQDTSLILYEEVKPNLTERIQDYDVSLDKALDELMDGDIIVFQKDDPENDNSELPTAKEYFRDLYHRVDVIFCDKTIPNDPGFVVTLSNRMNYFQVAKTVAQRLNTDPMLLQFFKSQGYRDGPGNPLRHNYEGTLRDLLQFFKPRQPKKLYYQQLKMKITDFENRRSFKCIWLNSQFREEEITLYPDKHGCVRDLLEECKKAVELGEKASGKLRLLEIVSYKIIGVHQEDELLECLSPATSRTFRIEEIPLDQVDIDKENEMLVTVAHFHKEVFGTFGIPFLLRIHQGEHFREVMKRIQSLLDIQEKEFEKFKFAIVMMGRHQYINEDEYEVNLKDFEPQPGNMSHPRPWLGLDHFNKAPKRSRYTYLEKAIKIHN

CCc1c(-c2ccc(C(=O)NC)nc2)ccc(NCCN=[N+]=[N-])c1-c1ccc(O)cc1 [U70]
IC50 (USP7): 1 to 100 µM
Kd (USP7 CD + UBL 1-5; [1]): 1 to 100 µM

C[C@H](CC(=O)N1CCC(O)(Cn2cnc3c(-c4ccc(CNC(=O)CCCCCCNC(=O)OC(C)(C)C)cc4)n(C)nc3c2=O)CC1)c1ccccc1 [U132]
IC50 (USP7): < 1 µM
Kd (USP7 CD + UBL 1-5; [2]): < 1 µM

CCc1c(-c2ccc(C(=O)NCCCNC(=O)CCOCCNC(=O)OC(C)(C)C)nc2)cnc(N)c1-c1ccc(O)cc1 [U55]
IC50 (USP7): 1 to 100 µM
Kd (USP7 CD + UBL 1-5; [1]): 1 to 100 µM

CCc1c(-c2ccc3[nH]ncc3c2)c(C#N)nc(CNC(=O)OC(C)(C)C)c1-c1ccc(O)cc1 [U86]
IC50 (USP7): 1 to 100 µM
Kd (USP7 CD + UBL 1-5; [1]): 1 to 100 µM

CCc1c(-c2ccc(C(=O)NCCCNC(=O)CCOCCOCCOCCNC(=O)OC(C)(C)C)nc2)cnc(N)c1-c1ccc(O)cc1 [U57]
IC50 (USP7): 1 to 100 µM
Kd (USP7 CD + UBL 1-5; [1]): 1 to 100 µM

CN1CCCn2nc(C(=O)Nc3nc4ccc(NS(=O)(=O)c5cn6c(n5)CCC6)cc4s3)cc2C1 [U102]
IC50 (USP7): > 100 µM
Kd (USP7 CD + UBL 1-5; [1]): 1 to 100 µM

C[C@H](CC(=O)N1CCC(O)(Cn2cnc(NCCN3CCN(CCN=[N+]=[N-])CC3)cc2=O)CC1)c1ccccc1 [U69]
IC50 (USP7): < 1 µM
Kd (USP7 CD + UBL 1-5; [1]): < 1 µM

Cc1cc(Cl)cc(-c2ccnc3cc(CN4C(=O)CCC4=O)sc23)c1OC1CCN(C(=O)CCOCCNC(=O)OC(C)(C)C)CC1 [U32]
IC50 (USP7): 1 to 100 µM
Kd (USP7 CD + UBL 1-5; [1]): 1 to 100 µM

CN1CCCn2nc(C(=O)Nc3nc4ccc(N(CC5CCNC5)S(=O)(=O)c5cccs5)cc4s3)cc2C1 (stereo not shown) [U115]
IC50 (USP7): > 100 µM
Kd (USP7 CD + UBL 1-5; [1]): 1 to 100 µM

Cc1cc(Cl)cc(-c2ccnc3cc(CN4C(=O)CCC4=O)sc23)c1OC1CCN(C(=O)CCOCCOCCNC(=O)OC(C)(C)C)CC1 [U33]
IC50 (USP7): 1 to 100 µM
Kd (USP7 CD + UBL 1-5; [1]): 1 to 100 µM

C[C@H](CC(=O)N1CCC(O)(CN2C=NC3C(C#CCOCCNC(=O)OC(C)(C)C)=CSC3C2=O)CC1)c1ccccc1 (stereo partly shown) [U20]
IC50 (USP7): 1 to 100 µM
Kd (USP7 CD + UBL 1-5; [1]): 1 to 100 µM

C[C@H](CC(=O)N1CCC(O)(Cn2cnc3c(-c4ccc(CNC(=O)CCNC(=O)OC(C)(C)C)cc4)n(C)nc3c2=O)CC1)c1ccccc1 [U134]
IC50 (USP7): < 1 µM
Kd (USP7 CD + UBL 1-5; [2]): < 1 µM

C[C@H](CC(=O)N1CCC(O)(Cn2cnc(N3CCN(CCN)CC3)cc2=O)CC1)c1ccccc1 [U59]
IC50 (USP7): 1 to 100 µM
Kd (USP7 CD + UBL 1-5; [1]): < 1 µM

CCc1c(-c2ccc(C(=O)NCCCNC(=O)CCOCCOCCOCCOCCNC(=O)OC(C)(C)C)nc2)cnc(N)c1-c1ccc(O)cc1 [U58]
IC50 (USP7): 1 to 100 µM
Kd (USP7 CD + UBL 1-5; [1]): 1 to 100 µM

Cc1cc(Cl)cc(-c2ccnc3cc(CN4C(=O)CCC4=O)sc23)c1OC1CCN(C(=O)CCOCCOCCOCCNC(=O)OC(C)(C)C)CC1 [U34]
IC50 (USP7): 1 to 100 µM
Kd (USP7 CD + UBL 1-5; [1]): 1 to 100 µM

CN1CCCn2nc(C(=O)Nc3nc4ccc(NCc5c[nH]cn5)cc4s3)cc2C1 [U114]
IC50 (USP7): > 100 µM
Kd (USP7 CD + UBL 1-5; [1]): > 100 µM

CCc1c(-c2ccc(C(=O)NCCCNC(=O)CCNC(=O)OC(C)(C)C)nc2)cnc(N)c1-c1ccc(O)cc1 [U53]
IC50 (USP7): 1 to 100 µM
Kd (USP7 CD + UBL 1-5; [1]): 1 to 100 µM

CCc1c(-c2ccc3[nH]ncc3c2)cnc(CNC(=O)OC(C)(C)C)c1-c1ccc(O)cc1 [U60]
IC50 (USP7): 1 to 100 µM
Kd (USP7 CD + UBL 1-5; [1]): 1 to 100 µM

CN1CCCn2nc(C(=O)Nc3nc4ccc(N(C5CCNC5)S(=O)(=O)c5cccs5)cc4s3)cc2C1 (stereo not shown) [U120]
IC50 (USP7): > 100 µM
Kd (USP7 CD + UBL 1-5; [1]): 1 to 100 µM

CN1CC2CN(C(=O)Nc3nc4ccc(NS(=O)(=O)c5cccs5)cc4s3)CC2C1 (stereo not shown) [U117]
IC50 (USP7): > 100 µM
Kd (USP7 CD + UBL 1-5; [1]): 1 to 100 µM

CN1CCC(C(=O)Nc2nc3cc(NS(=O)(=O)c4cccs4)ccc3s2)CC1 [U88]
IC50 (USP7): > 100 µM
Kd (USP7 CD + UBL 1-5; [1]): > 100 µM

Cc1cc(Cl)cc(-c2ccnc3cc(CN4C(=O)CCC4=O)sc23)c1OC1CCN(C(=O)CCCCCCCCNC(=O)OC(C)(C)C)CC1 [U31]
IC50 (USP7): > 100 µM
Kd (USP7 CD + UBL 1-5; [1]): 1 to 100 µM

Cc1cc(Cl)cc(-c2ccnc3cc(CN4C(=O)CCC4=O)sc23)c1OC1CCN(C(=O)OC(C)(C)C)CC1 [U15]
IC50 (USP7): > 100 µM
Kd (USP7 CD + UBL 1-5; [2]): 1 to 100 µM
Kd (USP7 CD + UBL 1-5; [1]): 1 to 100 µM

CCc1c(-c2ccc(C(=O)NCCN)nc2)cnc(N)c1-c1ccc(O)cc1 [U61]
IC50 (USP7): < 1 µM
Kd (USP7 CD + UBL 1-5; [1]): < 1 µM

CN1CCN(C(=O)Nc2nc3ccc(NS(=O)(=O)c4cccs4)cc3s2)CC1=O [U123]
IC50 (USP7): > 100 µM
Kd (USP7 CD + UBL 1-5; [1]): > 100 µM

NCc1cc(Nc2nc3ccc(NS(=O)(=O)c4cn5c(n4)CCC5)cc3s2)ncn1 [U100]
IC50 (USP7): > 100 µM
Kd (USP7 CD + UBL 1-5; [1]): 1 to 100 µM

Cn1nc(C(=O)Nc2nc3ccc(NS(=O)(=O)c4cccs4)cc3s2)cc1CN1CCC(CO)CC1 [U105]
IC50 (USP7): > 100 µM
Kd (USP7 CD + UBL 1-5; [1]): 1 to 100 µM

CN1CCCn2nc(C(=O)Nc3nc4ccc(NS(=O)(=O)c5cccs5)cc4s3)nc2C1 [U124]
IC50 (USP7): 1 to 100 µM
Kd (USP7 CD + UBL 1-5; [1]): > 100 µM

C[C@H](CC(=O)N1CCC(O)(Cn2cnc3c(-c4ccc(CNC(=O)CCCCNC(=O)OC(C)(C)C)cc4)n(C)nc3c2=O)CC1)c1ccccc1 [U131]
IC50 (USP7): < 1 µM
Kd (USP7 CD + UBL 1-5; [2]): < 1 µM

Cn1ccc(C(=O)Nc2nc3ccc(NS(=O)(=O)c4cccs4)cc3s2)n1 [U107]
IC50 (USP7): > 100 µM
Kd (USP7 CD + UBL 1-5; [1]): 1 to 100 µM

CN1CCCn2nc(C(=O)Nc3nc4ccc(N[S+]([O-])c5cccs5)cc4s3)cc2C1 (stereo not shown) [U113]
IC50 (USP7): > 100 µM
Kd (USP7 CD + UBL 1-5; [1]): 1 to 100 µM

C[C@H](CC(=O)N1CCC(O)(Cn2cnc3cc(NCCN4CCN(CCCNC(=O)OC(C)(C)C)CC4)ccc3c2=O)CC1)c1ccccc1 [U35]
IC50 (USP7): < 1 µM
Kd (USP7 CD + UBL 1-5; [1]): < 1 µM

CN1CCC(C(=O)Nc2nc3ccc(N(C)S(=O)(=O)c4cccs4)cc3s2)CC1 [U75]
IC50 (USP7): > 100 µM
Kd (USP7 CD + UBL 1-5; [1]): > 100 µM

CCc1c(-c2ccc(C(=O)NCCCNC(=O)CCCCCCNC(=O)OC(C)(C)C)nc2)cnc(N)c1-c1ccc(O)cc1 [U51]
IC50 (USP7): > 100 µM
Kd (USP7 CD + UBL 1-5; [1]): 1 to 100 µM

O=C(O)c1ccnc(Nc2nc3ccc(NS(=O)(=O)c4cccs4)cc3s2)n1 [U85]
IC50 (USP7): > 100 µM
Kd (USP7 CD + UBL 1-5; [1]): > 100 µM

CC(C)(C)OC(=O)N1CCC(C(=O)Nc2nc3ccc(N(S(=O)(=O)c4cccs4)S(=O)(=O)c4cccs4)cc3s2)CC1 [U66]
IC50 (USP7): > 100 µM
Kd (USP7 CD + UBL 1-5; [1]): 1 to 100 µM

CN1CCC(C(=O)Nc2nc3ccc(NS(=O)(=O)c4cn5c(n4)CCC5)cc3s2)CC1 [U91]
IC50 (USP7): > 100 µM
Kd (USP7 CD + UBL 1-5; [1]): 1 to 100 µM

O=C(Nc1nc2ccc(NS(=O)(=O)c3cccs3)cc2s1)C1CCNCC1 [U67]
IC50 (USP7): > 100 µM
Kd (USP7 CD + UBL 1-5; [1]): 1 to 100 µM

C[C@H](CC(=O)N1CCC(O)(Cn2cnc3c(-c4ccc(CNC(=O)CCCCCCCNC(=O)OC(C)(C)C)cc4)n(C)nc3c2=O)CC1)c1ccccc1 [U133]
IC50 (USP7): < 1 µM
Kd (USP7 CD + UBL 1-5; [2]): < 1 µM

Cc1cc(Cl)cc(-c2ccnc3cc(CN4C(=O)CCC4=O)sc23)c1OC1CCN(C(=O)CN=[N+]=[N-])CC1 [U19]
IC50 (USP7): < 1 µM
Kd (USP7 CD + UBL 1-5; [1]): < 1 µM

CN(C)Cc1cc(C(=O)Nc2nc3ccc(NS(=O)(=O)c4cccs4)cc3s2)nn1C [U101]
IC50 (USP7): > 100 µM
Kd (USP7 CD + UBL 1-5; [1]): 1 to 100 µM

CCc1c(-c2ccc(O)cc2)cnc(C=O)c1-c1ccc(O)cc1 [U64]
IC50 (USP7): 1 to 100 µM
Kd (USP7 CD + UBL 1-5; [1]): 1 to 100 µM

CCc1c(-c2ccc(C(=O)NCCOCCOCCOCCNC(=O)OC(C)(C)C)nc2)ccc(N)c1C1=CC=C(O)CC1 [U44]
IC50 (USP7): 1 to 100 µM
Kd (USP7 CD + UBL 1-5; [1]): 1 to 100 µM

CCc1c(-c2ccc(C(=O)NCCCNC(=O)CCOCCOCCNC(=O)OC(C)(C)C)nc2)cnc(N)c1-c1ccc(O)cc1 [U56]
IC50 (USP7): 1 to 100 µM
Kd (USP7 CD + UBL 1-5; [1]): 1 to 100 µM

C=CS(=O)(=O)Nc1ccccc1-c1ccc(C(=O)N2CCC(O)(Cn3cnc4c(cnn4C)c3=O)CC2)cc1 [U27]
Kd (USP7 CD + UBL 1-5; [1]): 1 to 100 µM

O=C(CCc1ccccc1)N1CCC(O)(Cn2cnc3cc(Cl)ccc3c2=O)CC1 [U26]
Kd (USP7 CD + UBL 1-5; [1]): 1 to 100 µM

— patent US20240358842A1, “PROTEIN STABILIZING COMPOUNDS CONTAINING USP7 LIGANDS” (Stablix, Inc., priority 2021, published 2024)
